Assay results from patent publication US8952043B2, “Benzoxepin PI3K inhibitor compounds and methods of use” (Genentech, Inc., priority 2009, dated 2015).

What was measured:
[1] = biological target: T1, p110 alpha PI3K (Homo sapiens, UniProt P42336); assay: p110α (alpha) PI3K binding assay (fluorescence polarization); settings: read-out: IC50 (inhibition of PI3K alpha, p110 alpha)
T1 construct: purchased Upstate Cell Signaling Solutions, Charlottesville, Va
Procedure: Determination of the PI3 kinase activity of a Formula I compound is possible by a number of direct and indirect detection methods. Certain exemplary compounds described herein were assayed for their p110α (alpha), and other isoform, PI3K binding activity (Example 601) and in vitro activity against tumor cells (Example 602).
Binding Assays: Initial polarization experiments were performed on an Analyst HT 96-384 (Molecular Devices Corp, Sunnyvale, Calif.). […] After an incubation time of 30 minutes at room temperature, the reactions were stopped by the addition of GRP-1 and PIP3-TAMRA probe (Echelon-Inc., Salt Lake City, Utah.) 100 nM and 5 nM final concentrations respectively. Read with standard cut-off filters for the rhodamine fluorophore (λex=530 nm; λem=590 nm) in 384-well black low volume Proxiplates (PerkinElmer, Wellesley, Mass.) Fluorescence polarization values were plotted as a function of the protein concentration, and the EC50 values were obtained by fitting the data to a 4-parameter equation using KaleidaGraph software (Synergy software, Reading, Pa.). This experiment also establishes the appropriate protein concentration to use in subsequent competition experiments with inhibitors.
Inhibitor IC50 values were determined by addition of the 0.04 mg/mL p110 alpha PI3K (final concentration) combined with PIP2 ([…] final concentration) to wells containing 1:3 serial dilutions of the antagonists in a final concentration of […] ATP (Cell Signaling Technology, Inc., Danvers, Mass.) in the polarization buffer. After an incubation time of 30 minutes at room temperature, the reactions were stopped by the addition of GRP-1 and PIP3-TAMRA probe (Echelon-Inc., Salt Lake City, Utah.) 100 nM and 5 nM final concentrations respectively. Read with standard cut-off filters for the rhodamine fluorophore (λex=530 nm; λem=590 nm) in 384-well black low volume proxi plates (PerkinElmer, Wellesley, Mass.) Fluorescence polarization values were plotted as a function of the antagonist concentration, and the IC50 values were obtained by fitting the data to a 4-parameter equation in Assay Explorer software (MDL, San Ramon, Calif.).
Alternatively, inhibition of PI3K was determined in a radiometric assay using purified, recombinant enzyme and ATP at a concentration of 1 uM. The Formula I compound was serially diluted in 100% DMSO. The kinase reaction was incubated for 1 hr at room temperature, and the reaction was terminated by the addition of PBS. IC50 values were subsequently determined using sigmoidal dose-response curve fit (variable slope).

[2] = tested on: AU565; assay: CellTiter-Glo cell proliferation assay, AU565; type: cell-based; settings: Homo sapiens, Breast, mutation status WT
Procedure: (§1) The in vitro potency of Formula I exemplary compounds was measured by the cell proliferation assay, CellTiter-Glo® Luminescent Cell Viability Assay, commercially available from Promega Corp., Madison, Wis. (Example 602). This homogeneous assay method is based on the recombinant expression of Coleoptera luciferase (U.S. Pat. Nos. 5,583,024; 5,674,713; 5,700,670) and determines the number of viable cells in culture based on quantitation of the ATP present, an indicator of metabolically active cells (Crouch et al (1993) J. Immunol. Meth. 160:81-88; U.S. Pat. No. 6,602,677). The CellTiter-Glo® Assay was conducted in 96 or 384 well format, making it amenable to automated high-throughput screening (HTS) (Cree et al (1995) AntiCancer Drugs 6:398-404). The homogeneous assay procedure involves adding the single reagent (CellTiter-Glo® Reagent) directly to cells cultured in serum-supplemented medium. Cell washing, removal of medium and multiple pipetting steps are not required. The system detects as few as 15 cells/well in a 384-well format in 10 minutes after adding reagent and mixing.
(§2) Efficacy of Formula I compounds were measured by a cell proliferation assay employing the following protocol (Promega Corp. Technical Bulletin TB288; Mendoza et al (2002) Cancer Res. 62:5485-5488):
(§3) 1. An aliquot of 100 μl of cell culture containing about 10^4 cells (PC3, Detroit562, or MDAMB361.1) in medium was deposited in each well of a 384-well, opaque-walled plate.
(§4) 2. Control wells were prepared containing medium and without cells.
(§5) 3. The compound was added to the experimental wells and incubated for 3-5 days.
(§6) 4. The plates were equilibrated to room temperature for approximately 30 minutes.
(§7) 5. A volume of CellTiter-Glo Reagent equal to the volume of cell culture medium present in each well was added.
(§8) 6. The contents were mixed for 2 minutes on an orbital shaker to induce cell lysis.
(§9) 7. The plate was incubated at room temperature for 10 minutes to stabilize the luminescence signal.
(§10) 8. Luminescence was recorded and reported in graphs as RLU=relative luminescence units.
(§11) Alternatively, cells were seeded at optimal density in a 96 well plate and incubated for 4 days in the presence of test compound. Alamar Blue™ was subsequently added to the assay medium, and cells were incubated for 6 hr before reading at 544 nm excitation, 590 nm emission. EC50 values were calculated using a sigmoidal dose response curve fit. […] It is commonly used as a measure of drug potency.
(§12) The anti-proliferative effects of Formula I exemplary compounds were measured by the CellTiter-Glo® Assay against various tumor cell lines, including the following: […]

[3] = tested on: BT474; assay: CellTiter-Glo cell proliferation assay, BT474; type: cell-based; settings: Homo sapiens, BT-474, Breast, mutation status PI3K(amped)
Procedure: as §1, §2
1. […]
as §9, §10
(§13) Alternatively, cells were seeded at optimal density in a 96 well plate and incubated for 4 days in the presence of test compound. Alamar Blue™ was subsequently added to the assay medium, and cells were incubated for 6 hr before reading at 544 nm excitation, 590 nm emission. EC50 values were calculated using a sigmoidal dose response curve fit. […]
as §12

[4] = tested on: EVSA-T; assay: CellTiter-Glo cell proliferation assay, EVSA-T; type: cell-based; settings: Homo sapiens, Breast, mutation status PTEN
Procedure: as §1, §2, §3, §4, §5, §6, §7, §8, §9, §10, §11, §12

[5] = tested on: HCC1954; assay: CellTiter-Glo cell proliferation assay, HCC1954; type: cell-based; settings: Homo sapiens, Breast, mutation status PI3K
Procedure: as §1, §2
1. […]
as §9, §10, §13, §12

[6] = tested on: KPL4; assay: CellTiter-Glo cell proliferation assay, KPL4; type: cell-based; settings: Breast, mutation status PI3K
Procedure: as §1, §2
1. […]
as §9, §10, §13, §12

[7] = tested on: MDA-MB-361.1; assay: CellTiter-Glo cell proliferation assay, MDA-MB-361.1; type: cell-based; settings: Breast, mutation status PI3K
Procedure: as §1, §2, §3, §4, §5, §6, §7, §8, §9, §10, §11, §12

[8] = tested on: MFM223; assay: CellTiter-Glo cell proliferation assay, MFM223; type: cell-based; settings: Homo sapiens, MFM-223, Breast, mutation status PI3K
Procedure: as §1, §2
1. […]
as §9, §10, §13, §12

[9] = tested on: SKBR3; assay: CellTiter-Glo cell proliferation assay, SKBR3; type: cell-based; settings: Homo sapiens, SK-BR-3, Breast, mutation status WT
Procedure: The in vitro potency of Formula I exemplary compounds was measured by the cell proliferation assay, CellTiter-Glo® Luminescent Cell Viability Assay, commercially available from Promega Corp., Madison, Wis. (Example 602). This homogeneous assay method is based on the recombinant expression of Coleoptera luciferase (U.S. Pat. Nos. 5,583,024; 5,674,713; 5,700,670) and determines the number of viable cells in culture based on quantitation of the ATP present, an indicator of metabolically active cells (Crouch et al (1993) J. Immunol. Meth. 160:81-88; U.S. Pat. No. 6,602,677). […]
Efficacy of Formula I compounds were measured by a cell proliferation assay employing the following protocol (Promega Corp. Technical Bulletin TB288; Mendoza et al (2002) Cancer Res. 62:5485-5488): […]
as §9, §10, §13

[10] = tested on: T47D; assay: CellTiter-Glo cell proliferation assay, T47D; type: cell-based; settings: Homo sapiens, Breast, mutation status PI3K
Procedure: as §1, §2
1. […]
as §9, §10, §13, §12

[11] = tested on: H2122; assay: CellTiter-Glo cell proliferation assay, H2122; type: cell-based; settings: Homo sapiens, NCI-H2122, Lung(NSCLC), mutation status K-RAS
Procedure: as §1, §2
1. […]
as §9, §10, §13, §12

[12] = tested on: PC3; assay: CellTiter-Glo cell proliferation assay, PC3; type: cell-based; settings: Homo sapiens, PC-3, Prostate, mutation status PTEN
Procedure: as §1, §2
1. […]
as §9, §10, §13, §12

T1 sequence (P42336 whole entry): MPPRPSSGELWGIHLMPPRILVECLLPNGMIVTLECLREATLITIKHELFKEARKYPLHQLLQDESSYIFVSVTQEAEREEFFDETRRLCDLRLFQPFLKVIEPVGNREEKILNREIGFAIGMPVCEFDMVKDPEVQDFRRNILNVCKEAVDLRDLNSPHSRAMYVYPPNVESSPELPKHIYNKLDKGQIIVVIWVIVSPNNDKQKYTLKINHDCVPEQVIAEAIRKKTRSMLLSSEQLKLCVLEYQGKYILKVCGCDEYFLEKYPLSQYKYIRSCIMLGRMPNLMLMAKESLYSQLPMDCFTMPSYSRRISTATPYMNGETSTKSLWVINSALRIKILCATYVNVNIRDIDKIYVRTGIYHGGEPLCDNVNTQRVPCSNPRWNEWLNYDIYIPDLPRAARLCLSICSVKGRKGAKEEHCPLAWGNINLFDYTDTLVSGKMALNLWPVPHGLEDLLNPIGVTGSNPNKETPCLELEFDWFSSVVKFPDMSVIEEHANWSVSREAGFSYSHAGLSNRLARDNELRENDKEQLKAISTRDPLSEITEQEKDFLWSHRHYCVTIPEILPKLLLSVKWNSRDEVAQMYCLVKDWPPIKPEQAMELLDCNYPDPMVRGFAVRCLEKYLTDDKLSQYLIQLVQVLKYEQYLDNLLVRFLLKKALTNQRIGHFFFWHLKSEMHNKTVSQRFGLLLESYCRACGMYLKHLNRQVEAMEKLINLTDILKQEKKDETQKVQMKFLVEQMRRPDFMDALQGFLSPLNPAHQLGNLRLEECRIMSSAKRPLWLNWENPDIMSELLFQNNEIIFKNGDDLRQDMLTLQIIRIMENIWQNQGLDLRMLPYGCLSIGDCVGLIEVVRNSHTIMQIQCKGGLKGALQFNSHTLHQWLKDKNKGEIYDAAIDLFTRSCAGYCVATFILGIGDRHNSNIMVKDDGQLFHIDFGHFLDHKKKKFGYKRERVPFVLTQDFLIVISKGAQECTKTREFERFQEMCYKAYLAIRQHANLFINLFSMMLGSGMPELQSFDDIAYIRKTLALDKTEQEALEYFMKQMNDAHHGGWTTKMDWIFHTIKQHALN
T1 sequence (P27986 whole entry partner): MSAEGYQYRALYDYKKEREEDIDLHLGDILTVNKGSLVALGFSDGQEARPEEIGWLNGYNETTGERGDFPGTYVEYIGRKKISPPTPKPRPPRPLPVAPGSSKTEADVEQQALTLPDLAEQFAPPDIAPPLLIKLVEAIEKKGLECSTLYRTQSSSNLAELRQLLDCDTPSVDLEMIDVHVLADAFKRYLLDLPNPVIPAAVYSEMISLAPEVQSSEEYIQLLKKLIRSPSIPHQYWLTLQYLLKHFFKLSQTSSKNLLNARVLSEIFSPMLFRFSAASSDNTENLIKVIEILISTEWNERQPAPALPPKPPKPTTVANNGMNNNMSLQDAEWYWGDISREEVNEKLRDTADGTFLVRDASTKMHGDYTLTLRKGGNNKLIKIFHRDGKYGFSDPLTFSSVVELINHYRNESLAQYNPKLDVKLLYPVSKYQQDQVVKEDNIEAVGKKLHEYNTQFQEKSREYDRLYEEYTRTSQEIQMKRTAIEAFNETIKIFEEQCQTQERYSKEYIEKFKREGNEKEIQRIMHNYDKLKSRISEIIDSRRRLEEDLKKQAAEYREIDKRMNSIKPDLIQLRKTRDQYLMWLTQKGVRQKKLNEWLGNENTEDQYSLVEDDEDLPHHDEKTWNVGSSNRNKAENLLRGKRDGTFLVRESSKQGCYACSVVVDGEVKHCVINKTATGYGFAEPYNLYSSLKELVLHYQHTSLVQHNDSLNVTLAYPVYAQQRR

| Structure (SMILES) | IC50 [1] [nM] | EC50 [7] [nM] | EC50 [2] [nM] | EC50 [4] [nM] | also measured |
| --- | --- | --- | --- | --- | --- |
| O=C(NCc1ccc2c(c1)OCCc1sc(-c3ncnn3CC(F)(F)F)nc1-2)c1cn[nH]c1 [compound 106, 1H-Pyrazole-4-carboxylic acid {2-[2-(2,2,2-trifluoro-ethyl)-2H-[1,2,4]triazol-3-yl]-4,5-dihydro-6-oxa-3-thia-1-aza-benzo[e]azulen-8-ylmethyl}-amide] | 5.7 | – | – | – | – |
| Cc1nc(-c2nc3c(s2)CCOc2cc(-c4cn(CCO)cn4)ccc2-3)n(C(C)C)n1 [compound 440, 2-{4-[2-(2-Isopropyl-5-methyl-2H-[1,2,4]triazol-3-yl)-4,5-dihydro-6-oxa-3-thia-1-aza-benzo[e]azulen-8-yl]-imidazol-1-yl}-ethanol] | – | 2610 | 1240 | 4930 | EC50 [3]: 1630 nM; EC50 [5]: 1620 nM; EC50 [6]: 338 nM; EC50 [8]: 4410 nM; EC50 [9]: 1730 nM; EC50 [10]: 569 nM; EC50 [11]: 10000 nM; EC50 [12]: 3030 nM |
| CN(CCC#N)C(=O)c1nc2c(s1)CCOc1cc(-c3cn[nH]c3)ccc1-2 [compound 153, 8-(1H-Pyrazol-4-yl)-4,5-dihydro-6-oxa-3-thia-1-aza-benzo[e]azulene-2-carboxylic acid (2-cyano-ethyl)-methyl-amide] | 58 | – | – | – | – |

More lines, in order of falling IC50 [1], values ahead:

| IC50 [1] [nM] | EC50 [7] [nM] | Structure (SMILES) | EC50 [2] [nM] | EC50 [4] [nM] | also measured |
| --- | --- | --- | --- | --- | --- |
| 1.3 | – | O=S1(=O)CCN(CCNc2ccc3c(n2)-c2sc(-c4ncnn4-c4ccc(F)cc4F)cc2CCO3)CC1 [compound 109, {2-[2-(2,4-Difluoro-phenyl)-2H-[1,2,4]triazol-3-yl]-4,5-dihydro-6-oxa-1-thia-10-aza-benzo[e]azulen-9-yl}-[2-(1,1-dioxo-1S-thiomorpholin-4-yl)-ethyl]-amine] | – | – | – |
| 0.2 | – | Nc1nc(-c2cc3c(s2)-c2ccc(C(=O)NCCO)cc2OCC3)n(-c2ccc(F)cc2F)n1 [compound 151, 2-(3-amino-1-(2,4-difluorophenyl)-1H-1,2,4-triazol-5-yl)-N-(2-hydroxyethyl)-4,5-dihydrobenzo[b]thieno[2,3-d]oxepine-8-carboxamide] | – | – | – |
| 0.05 | 60 | CNC(=O)c1ccc2c(c1)OCCc1cc(-c3nc(N)nn3-c3ccc(F)cc3F)sc1-2 [compound 127, 2-(3-amino-1-(2,4-difluorophenyl)-1H-1,2,4-triazol-5-yl)-N-methyl-4,5-dihydrobenzo[b]thieno[2,3-d]oxepine-8-carboxamide] | 37 | 147 | – |
